From patent US20040170645A1, “Seaweed extract composition for retardation of cardiovascular disorders and preservation of healthy cardiovascular function” (priority 2002, published 2004)

Test system: thrombus in the right jugular vein
Experiment: Thrombosis test (jugular vein, formalin/methanol initiated)
Assay type: in vivo, rat
Details: 7.5 mg/kg oral, 4 h
Method: One hundred and two male Wistar rats, weighing 312±64 g (±SD), were handled and housed according to the Principles of Animal Care set out by the Canadian Federation of Biological Societies. The animals were fasted overnight prior to treatment and were anaesthetized with barbital and methoxyflurane for experimental procedures.
The rhamnan-arginine complex was weighed fresh daily. Six to 8 rats were treated per day. […] Thus when the stomach tube was placed in the stomach the drugs were first introduced into the stomach followed by saline to give a total volume of approximately 0.4 ml. In the heparin alone group, heparin was administered in a volume of 0.1-0.2 ml followed by 0.2 ml saline. Control group was saline alone.
The thrombosis test was performed by a modification of the procedure by Blake et al. For animals exposed to treatment for 4 h, a thrombus was initiated in the right jugular vein by application of 10% formalin in 65% methanol to the exposed adventitial surface. Immediately following, drugs were introduced into the stomach by stomach tube. […] The clot was scored as + (hard clot) if the vessel is blocked and remained blocked despite examination with a cotton pledget. […] The thrombus was scored as − (negative) if blood was seen to flow freely in the vessel.
Thrombosis data is expressed as a percentage with 95% confidence intervals. […] Other data is expressed as mean ±SE. […]

Heparin
incidence of hard clots: reduced the percentage of incidence of hard clots | total incidence of thrombosis: little or no effect
